Reference: patent US5846936A, “Growth hormone releasing factor analogs” (Roche Vitamins Inc., priority 1995, dated 1998)
*1 amine or outer side, *2 acyl side, *3 side chain or, on linkers, in order; H or OH if unused. Where a SMILES comes first, the peptide text is derived from it. Where no end group is shown, it is not given here. [ ]: non-standard residue; d: D form. The star is where a group is joined. Desaminotyrosyl = O=C(CCc1ccc(O)cc1)*; βAsp = O=C(O)[C@H](CC(=O)[*:2])N[*:1]

Key:
[1] = system: rat pituitary cells; assay type: cell-based
Method: The biological activity of the novel peptides were compared with that of a synthetic standard of the natural sequence of GRF(1-44)-NH2 (SEQ ID NO: 1-NH2) which was isolated from a human pancreatic tumor of an individual suffering from acromegaly (Salk Institute standard hp-GRF-NH2 (NL-A-10)). The assay for biological activity, which is based on the ability to stimulate production of growth hormone in rat pituitary cells in tissue culture, was performed in the following manner. Pituitaries from 30-40 male Sprague-Dawley rats (175 g) were removed aseptically after decapitation. The anterior lobes were collected, washed 3 times in sterile Hepes buffer (0.025M)(pH 7.35) and dispersed at 37° C. in 20-30 ml Hepes buffer (pH 7.35) containing collagenase (4 mg per ml) and Dispase (Protease grande II, 2 mg per ml). After gentle 80 min. vortexing and trituration by Pasteur pipette, the dispersed cells were separated by centrifugation (150×g, 4 min.) and re-suspended in Hepes buffer containing neuraminidase (4 mg/ml), and […] ethylenediaminetetraacetic acid (EDTA) disodium salt pH 7.35, for 10 min. The cells were washed twice with plating medium and plated on multiwell-plates (1.5×10^5 cells per ml) using the following defined medium: F-12/DMEM/BGJ(6:3:1) (Gibco: 430-1700/430-1600/320-2591) with 2 g BSA/L., 2.38 g Hepes/L.,50 mg Gentamycin/L (Schering Co.). The medium in each well was supplemented either with the novel peptide or natural GRF(1-44)-NH2 (SEQ ID NO: 1-NH2) at concentrations ranging from 3.1 to 200 fmol. per ml. of medium. Control wells contained no supplement. Plating was done with this medium added with 2% fetal calf serum to ensure rapid fixation of the cells. On the fourth day the cells were washed twice with the defined medium without fetal calf serum. Finally […] of defined medium was added to each well plus […] of the same medium containing each individual treatment, in triplicate. After 3 hours of incubation the medium was collected and diluted as required to conduct radioimmunoassay (RIA) for rat growth hormone. RIAs were conducted using Sinha's anti-murine GH immune serum and procedures according to the National Pituitary Agency using protein A to precipitate antibody antigen complex.

[2] = system: crossbred swine; assay: In vivo GRF analog administration in swine, serum GH by RIA (GH AUC); conditions: relative to GRF(1-29)-NH2
Method: In vivo GRF analog studies were performed in crossbred swine (approximately70 lbs; Hoffmann-La Roche Experimental Research Facility) housed in individual metabolism cages with food and water freely available. For each GRF analog examined, six pigs were arranged in a 6×6 latin square design, such that each pig received a different dose (0 [saline], 0.3, 1.0, 3.0, 6.0 or 10.0 μg/kg body weight) over a six day period. […] All swine were cannulated via the femoral artery under halothane/ketamine HCL/xylezine anesthesia for subsequent (2-3 days) blood sampling. GRF analog was administered by subcutaneous injection in porcine gelatin. Pretreatment (control) blood samples were taken every 30 min from 8:30-9:30 a.m. Treatment doses were administered beginning at 10:00 a.m. One hr post-dosing, animals were sampled at 10 min intervals; 2nd hr post-dosing, animals were sampled at 15 min intervals; 3rd hr post-dosing,animals were sampled at 30 min intervals. […]
GH levels in porcine sera were measured by homologous double-antibody RIA, employing porcine GH standard (lot# AFP-10859C) supplied by Dr. A. Parlow (Research and Education Institute, Torrance, Calif.) and baboon anti-pGH sera (B-58: Hoffmann-La Roche). […] GH area under the curve (GH AUC) for the treatment period (0-360 min) was determined by trapezoidal summation. […]

[3] = literature; cited from earlier work
[4] = products of Asn^8 deamidation of [Leu^27]-GRF(1-32)-NH2 at pH 7.4, literature; cited from earlier work

## CC[C@H](C)[C@H](NC(=O)[C@H](C)NC(=O)[C@H](CC(=O)O)NC(=O)[C@@H](C)NC(=O)CCc1ccc(O)cc1)C(=O)N[C@@H](Cc1ccccc1)C(=O)N[C@H](C(=O)N[C@@H](CC(N)=O)C(=O)N[C@@H](CO)C(=O)N[C@@H](Cc1ccc(O)cc1)C(=O)N[C@@H](CCCNC(=N)N)C(=O)N[C@@H](CCCCN)C(=O)N[C@H](C(=O)N[C@@H](CC(C)C)C(=O)N[C@@H](C)C(=O)N[C@@H](CCC(N)=O)C(=O)N[C@@H](CC(C)C)C(=O)N[C@@H](CO)C(=O)N[C@@H](C)C(=O)N[C@@H](CCCNC(=N)N)C(=O)N[C@@H](CCCCN)C(=O)N[C@@H](CC(C)C)C(=O)N[C@@H](CC(C)C)C(=O)N[C@@H](CCC(N)=O)C(=O)N[C@@H](CC(=O)O)C(=O)N[C@H](C(=O)N[C@@H](CCSC)C(=O)N[C@@H](CO)C(=O)N[C@@H](CCCNC(=N)N)C(N)=O)[C@@H](C)CC)C(C)C)[C@@H](C)O [SEQ ID NO: 34-NH2, reference compound] (Desaminotyrosyl-[dA]DAIFTNSYRKVLAQLSARKLLQDIMSR-NH2)
[1]
  Potency of GRF Analogs Relative to GRF(1-44)-NH2 (SEQ ID NO: 1-NH2): 4.71
[2]
  Times more potent than GRF(1-29)-NH2 (SEQ ID NO: 3-NH2): 10-15 times

## GRF(1-29)-NH2
[3]
  Intrinsic activity and potency in vitro: full intrinsic activity and potency

## [isoAsp^8, Leu^27 ]-GRF(1-32)-NH2 (YADAIFT[βAsp]SYRKVLGQLSARKLLQDILSRQQG-NH2; N-terminus assumed; SMILES CC[C@H](C)[C@H](NC(=O)[C@H](C)NC(=O)[C@H](CC(=O)O)NC(=O)[C@H](C)NC(=O)[C@@H](N)Cc1ccc(O)cc1)C(=O)N[C@@H](Cc1ccccc1)C(=O)N[C@H](C(=O)N[C@@H](CC(=O)N[C@@H](CO)C(=O)N[C@@H](Cc1ccc(O)cc1)C(=O)N[C@@H](CCCNC(=N)N)C(=O)N[C@@H](CCCCN)C(=O)N[C@H](C(=O)N[C@@H](CC(C)C)C(=O)NCC(=O)N[C@@H](CCC(N)=O)C(=O)N[C@@H](CC(C)C)C(=O)N[C@@H](CO)C(=O)N[C@@H](C)C(=O)N[C@@H](CCCNC(=N)N)C(=O)N[C@@H](CCCCN)C(=O)N[C@@H](CC(C)C)C(=O)N[C@@H](CC(C)C)C(=O)N[C@@H](CCC(N)=O)C(=O)N[C@@H](CC(=O)O)C(=O)N[C@H](C(=O)N[C@@H](CC(C)C)C(=O)N[C@@H](CO)C(=O)N[C@@H](CCCNC(=N)N)C(=O)N[C@@H](CCC(N)=O)C(=O)N[C@@H](CCC(N)=O)C(=O)NCC(N)=O)[C@@H](C)CC)C(C)C)C(=O)O)[C@@H](C)O) [deamidation product of [Leu^27]-GRF(1-32)-NH2]
[4]
  Biological activities: substantially reduced biological activities
